The source of these data is patent publication US6831199B1, “Pyrimidine compounds and derivatives thereof” (G. D. Searle & Co., priority 1995, dated 2004).

Counter-ions that a name gives are not always drawn. Where only a bound is given, the exact number is not on record here.

Experiment [1] addresses T1, Human vitronectin receptor (αvβ3) (Homo sapiens, UniProt P05106+P06756).
T1 construct: Human vitronectin receptor (αvβ3) was purified from human placenta; from tissue; host or cells: human placenta
The experiment can be described thus: Vitronectin adhesion assay (solid phase receptor assay, competition with biotinylated vitronectin). Type of experiment: binding. The following applies: read-out: AvB3 IC50. In short, it runs like this: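 Purified human αvβ3 coated overnight at 4 °C in TBS with 1.0 mM Ca++, Mg++, Mn++, pH 7.4; compounds (top final 1.0×10^−4 M) competed with 1 nM biotinylated vitronectin for 2 h at room temperature. Bound ligand detected by HRP anti-biotin/OPD at A450; values normalized to no-competitor controls, four-parameter curve fit.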

Experiment [2] has as its target T2, Human fibrinogen receptor (αIIbβ3) (Homo sapiens, UniProt P05106+P08514).
T2 construct: Human fibrinogen receptor (αIIbβ3) was purified from outdated platelets; from tissue; host or cells: outdated human platelets
The experiment can be described thus: Purified IIb/IIIa receptor assay (solid phase receptor assay, competition with biotinylated vitronectin). It is filed as binding. The following applies: read-out: IIb/IIIa IC50. In short, it runs like this: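 Competition format: 1 nM biotinylated vitronectin plus test compound (highest 1.0×10^−4 M), 2 h at room temperature on wells coated with platelet-derived αIIbβ3. Buffer was TBS containing 1.0 mM Ca, Mg, Mn, pH 7.4. HRP anti-biotin readout at 450 nm; normalized to maximum binding, four-parameter curve fit.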

Take `CC1(C)CN=C(Nc2cccc(C(=O)NCC(=O)NC(CC(=O)O)c3cc(Cl)cc(Cl)c3O)c2)NC1` (racemic) [Example 362, (±)3,5-dichloro-2-hydroxy-β-[[2-[[[3-[(1,4,5,6-tetrahydro-5,5-dimethylpyrimidin-2-yl)amino]phenyl]carbonyl]amino]acetyl]amino]benzenepropanoic acid, trifluoroacetate salt]: the IC50 was 0.84 nM in experiment [1] and 7260 nM in experiment [2].

Regarding `N=C(N)Nc1cccc(C(=O)NC2CCN(CCC(=O)O)C2=O)c1` (racemic) [Example 42, (±)3-[[[3-[(aminoiminomethyl)amino]phenyl]carbonyl]amino]-2-oxopyrrolidine-1-propanoic acid, trifluoroacetate salt], the IC50 was 124 nM in experiment [1] and 9800 nM in experiment [2].

Turning to `N=C(N)Nc1cc(C(=O)NCC(=O)NC(CC(=O)O)c2cc(Br)cc(Br)c2)cc(C(F)(F)F)c1` (racemic) [Example 213, (±)β-[[2-[[[3-[(aminoiminomethyl)amino]-5-(trifluoromethyl)phenyl]carbonyl]amino]acetyl]amino]-3,5-dibromobenzenepropanoic acid, trifluoroacetate salt], the IC50 in experiment [1] is 2.93 nM; in experiment [2], 334 nM.

Regarding `C#C[C@H](CC(=O)O)NC(=O)CNC(=O)c1cccc(N/C(N)=N\C(N)=O)c1` [Example 171, 3S-[[2-[[[3-[[amino[(aminocarbonyl)imino]methyl]amino]phenyl]carbonyl]amino]acetyl]amino]-4-pentynoic acid, trifluoroacetate salt, hydrate], the results for the IC50 in experiment [1] and in experiment [2] were 0.35 nM and 83.2 nM, respectively.

Turning to `O=C(O)CC(NC(=O)CNC(=O)c1cccc(NC2=NCCCCC2)c1)c1cc(Cl)cc(Cl)c1` (racemic) [Example 189, (±)β-[[2-[[[3-[(3,4,5,6-tetrahydro-2H-azepin-7-yl)amino]phenyl]carbonyl]amino]acetyl]amino]-3,5-dichlorobenzenepropanoic acid, trifluoroacetate salt], the figures for the IC50 in experiment [1] and in experiment [2] were 4.03 nM and 1980 nM, respectively.

Regarding `N=C(N)Nc1cccc(C(=O)NCC(=O)NC(CC(=O)O)c2c(F)c(F)cc(F)c2F)c1` (racemic) [Example 365, (±)β-[[2-[[[3-[(aminoiminomethyl)amino]phenyl]carbonyl]amino]acetyl]amino]-2,3,5,6-tetrafluorobenzenepropanoic acid, trifluoroacetate salt], the results for the IC50 in experiment [1] and in experiment [2] were 16.9 nM and 8470 nM, respectively.

Regarding `CCOC(=O)CC(NC(=O)CNC(=O)c1cccc(NC(=N)N)c1)c1ccoc1` (racemic) [Example 51, (±)ethyl β-[[2-[[[3-[(aminoiminomethyl)amino]phenyl]carbonyl]amino]acetyl]amino]furan-3-propanoate, trifluoroacetate salt], the IC50 in experiment [1] is 9730 nM; in experiment [2], > 100000 nM.

As to `CCC(CC(=O)O)NC(=O)CNC(=O)c1cccc(NC(=N)N)c1` (centres unmarked) [Example 264, 3-[[2-[[[3-[(aminoiminomethyl)amino]phenyl]carbonyl]amino]acetyl]amino]pentanoic acid, trifluoroacetate salt], the figures for the IC50 in experiment [1] and in experiment [2] were 2.18 nM and 574 nM, respectively.

Consider `C/N=C(/Nc1cccc(C(=O)NCC(=O)NC(CC(=O)O)c2cc(Cl)cc(Cl)c2)c1)NC(C)C` (racemic) [Example 296, (±)3,5-dichloro-β-[[2-[[[3-[[[(1-methylethyl)amino](methylimino)methyl]amino]phenyl]carbonyl]amino]acetyl]amino]benzenepropanoic acid, trifluoroacetate salt], for which the IC50 in experiment [1] turned out to be 404 nM; in experiment [2], 9450 nM.

As to `CNC(=NC(N)=O)Nc1cccc(C(=O)NCC(=O)NC(CC(=O)O)c2cc(Cl)cc(Cl)c2)c1` (racemic) [Example 201, (±)β-[[2-[[[3-[[[(aminocarbonyl)imino)methylamino)methyl]amino]phenyl]carbonyl]amino]acetyl]amino]-3,5-dichlorobenzenepropanoic acid], the IC50 in experiment [1] worked out at 58.1 nM; in experiment [2], 10800 nM.
